Laboratory results as given in ChEMBL document CHEMBL3137386, “DNDi T. cruzi fenarimol series dataset from which preclinical candidate EPL-BS1246 was identified (see also related datasets CHEMBL2448688 and CHEMBL3137440)”.
pIC50: −log10 of the molar value. ≈ marks a conversion by molar mass, not a printed value. Where “and” joins values, the source holds several entries; their conditions need not be identical. Equal values may be shown once.

Test system: not listed separately
Assay: DNDI: Lipophilicity (gLogD) at pH 3
Format: physicochemical
Details: buffer

SMILES | chromatographic logD
O=C(C(c1ccc(Cl)cc1)c1cncnc1)N1CCN(c2ccc(C(F)(F)F)nc2)CC1 (stereo unspecified) | 3.4
CS(=O)(=O)c1ccc(N2CCN(C(=O)C(c3ccc(Cl)cc3)c3cncnc3)CC2)cc1 (stereo unspecified) | 2.6

Test system: not listed separately
Assay: DNDI: Metabolism
Format: ADME, Microsome
Details: human, microsomes

SMILES | half-life [min] | microsomal CLint [µL/min/mg] | Clint | EH | t (1 / 2)
O=C(C(c1ccc(Cl)cc1)c1cccnc1)N1CCN(Cc2ccccc2C(F)(F)F)CC1 (stereo unspecified) | 4 | 460 |  |  | 
O=C(C(c1ccc(Cl)cc1)c1cncnc1)N1CCN(c2ccc(C(F)(F)F)nc2)CC1 (stereo unspecified) | 31 | 56 |  |  | 
CS(=O)(=O)c1ccc(N2CCN(C(=O)C(c3ccc(Cl)cc3)c3cncnc3)CC2)cc1 (stereo unspecified) | 50 |  | 34 µL/min/mg and 69 µL/min/mg and 40 µL/min/mg | 0.69 and 0.66 | 25 min and 43 min

Same assay, conditions: human, microsomes; read-out: EH

SMILES | hepatic extraction ratio
O=C(C(c1ccc(Cl)cc1)c1cccnc1)N1CCN(Cc2ccccc2C(F)(F)F)CC1 (stereo unspecified) | 0.96
O=C(C(c1ccc(Cl)cc1)c1cncnc1)N1CCN(c2ccc(C(F)(F)F)nc2)CC1 (stereo unspecified) | 0.76
CS(=O)(=O)c1ccc(N2CCN(C(=O)C(c3ccc(Cl)cc3)c3cncnc3)CC2)cc1 (stereo unspecified) | 0.79

Test system: not listed separately
Assay: DNDI: Solubility in phosphate buffer at pH 6.5 determined by nephelometry
Format: physicochemical
Details: not given

SMILES | solubility kinetic [µg/mL]
O=C(C(c1ccc(Cl)cc1)c1cncnc1)N1CCN(c2ccc(C(F)(F)F)nc2)CC1 (stereo unspecified) | 12.5 (≈ 27.1 µM)
CS(=O)(=O)c1ccc(N2CCN(C(=O)C(c3ccc(Cl)cc3)c3cncnc3)CC2)cc1 (stereo unspecified) | 6.3 (≈ 13.4 µM)

Biological target: Cytochrome P450 3A4 (Homo sapiens, UniProt P08684)
Assay: DNDI: CYP Inhibition
Format: ADME
Details: not given

Cytochrome P450 3A4, sequence (P08684 whole entry): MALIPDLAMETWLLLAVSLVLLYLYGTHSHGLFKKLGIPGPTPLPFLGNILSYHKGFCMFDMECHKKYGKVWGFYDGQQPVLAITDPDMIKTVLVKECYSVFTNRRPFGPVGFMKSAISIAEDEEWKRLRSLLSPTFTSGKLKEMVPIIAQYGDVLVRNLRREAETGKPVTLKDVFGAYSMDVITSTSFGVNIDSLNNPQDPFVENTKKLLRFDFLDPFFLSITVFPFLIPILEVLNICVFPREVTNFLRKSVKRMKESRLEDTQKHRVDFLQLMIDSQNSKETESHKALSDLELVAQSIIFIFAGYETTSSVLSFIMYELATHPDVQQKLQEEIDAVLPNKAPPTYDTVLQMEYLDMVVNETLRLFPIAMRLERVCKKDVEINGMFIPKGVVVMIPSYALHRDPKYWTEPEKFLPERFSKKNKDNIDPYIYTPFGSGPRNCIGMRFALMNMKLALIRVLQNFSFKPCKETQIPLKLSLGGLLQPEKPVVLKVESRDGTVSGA

SMILES | pIC50
O=C(C(c1ccc(Cl)cc1)c1cccnc1)N1CCN(Cc2ccccc2C(F)(F)F)CC1 (stereo unspecified) | 4.82
O=C(C(c1ccc(Cl)cc1)c1cncnc1)N1CCN(c2ccc(C(F)(F)F)nc2)CC1 (stereo unspecified) | < 4.70
CS(=O)(=O)c1ccc(N2CCN(C(=O)C(c3ccc(Cl)cc3)c3cncnc3)CC2)cc1 (stereo unspecified) | < 4.70

Test system: Trypanosoma cruzi
Assay: (§1) DNDI: Chagas in vitro
Format: functional, Tulahuen C4 (LacZ)
Details: Trypanosoma cruzi, Tulahuen C4 (LacZ)

SMILES | IC90 [nM]
CC(C)CN1CCN(C(=O)C(c2ccc(Cl)cc2)c2cccnc2)CC1 (stereo unspecified) | > 100
O=C(C(c1ccc(Cl)cc1)c1cccnc1)N1CCN(Cc2cccc(C(F)(F)F)c2)CC1 (stereo unspecified) | > 100
O=C(C(c1ccc(Cl)cc1)c1cccnc1)N1CCN(c2nccs2)CC1 (stereo unspecified) | > 100
CC(C)(C)OC(=O)N1CCN(C(=O)C(c2ccc(C#N)cc2)c2cccnc2)CC1 (stereo unspecified) | > 91
O=C(c1ccc(Cl)cc1)N1CCN(C(=O)C(c2ccc(Cl)cc2)c2cccnc2)CC1 (stereo unspecified) | > 100
O=S(=O)(Cc1ccccc1)Nc1cnccc1N1CCN(c2ccc(C(F)(F)F)cc2)CC1 | 29
O=C(c1ccccc1)N1CCN(C(=O)C(c2ccc(Cl)cc2)c2cccnc2)CC1 (stereo unspecified) | > 100
O=C(C(c1ccc(Cl)cc1)c1cccnc1)N1CCN(Cc2ccccc2C(F)(F)F)CC1 (stereo unspecified) | > 100
COCCN1CCN(C(=O)C(c2ccc(Cl)cc2)c2cccnc2)CC1 (stereo unspecified) | > 100
O=C(C(c1ccc(Cl)cc1)c1cncnc1)N1CCN(c2ccc(C(F)(F)F)nc2)CC1 (stereo unspecified) | > 100
CS(=O)(=O)c1ccc(N2CCN(C(=O)C(c3ccc(Cl)cc3)c3cncnc3)CC2)cc1 (stereo unspecified) | > 100

Test system: not listed separately
Assay: DNDI: Lipophilicity (gLogD) at pH 7.4
Format: physicochemical
Details: buffer

SMILES | chromatographic logD
O=C(C(c1ccc(Cl)cc1)c1cncnc1)N1CCN(c2ccc(C(F)(F)F)nc2)CC1 (stereo unspecified) | 3.3
CS(=O)(=O)c1ccc(N2CCN(C(=O)C(c3ccc(Cl)cc3)c3cncnc3)CC2)cc1 (stereo unspecified) | 2.6

Test system: not listed separately
Assay: DNDI: Cytotoxicity against L-6 rat myoblasts from skeletal muscle
Format: toxicity, cell-based, Muscle tissue, L6
Details: rat, L6 rat skeletal muscle myoblasts

SMILES | pIC50
CC(C)CN1CCN(C(=O)C(c2ccc(Cl)cc2)c2cccnc2)CC1 (stereo unspecified) | < 4.00
O=C(C(c1ccc(Cl)cc1)c1cccnc1)N1CCN(c2nccs2)CC1 (stereo unspecified) | < 4.00
CC(C)(C)OC(=O)N1CCN(C(=O)C(c2ccc(C#N)cc2)c2cccnc2)CC1 (stereo unspecified) | < 4.00
O=C(c1ccc(Cl)cc1)N1CCN(C(=O)C(c2ccc(Cl)cc2)c2cccnc2)CC1 (stereo unspecified) | < 4.00
O=S(=O)(Cc1ccccc1)Nc1cnccc1N1CCN(c2ccc(C(F)(F)F)cc2)CC1 | < 4.00
O=C(c1ccccc1)N1CCN(C(=O)C(c2ccc(Cl)cc2)c2cccnc2)CC1 (stereo unspecified) | < 4.00
O=C(C(c1ccc(Cl)cc1)c1cccnc1)N1CCN(Cc2ccccc2C(F)(F)F)CC1 (stereo unspecified) | 4.27
COCCN1CCN(C(=O)C(c2ccc(Cl)cc2)c2cccnc2)CC1 (stereo unspecified) | < 4.00
O=C(C(c1ccc(Cl)cc1)c1cncnc1)N1CCN(c2ccc(C(F)(F)F)nc2)CC1 (stereo unspecified) | < 4.00
CS(=O)(=O)c1ccc(N2CCN(C(=O)C(c3ccc(Cl)cc3)c3cncnc3)CC2)cc1 (stereo unspecified) | < 4.00

Test system: Trypanosoma cruzi
Assay: as §1
Format: functional, organism-based, Tulahuen C4 (LacZ)
Details: not given

SMILES | pIC50
CS(=O)(=O)c1ccc(N2CCN(C(=O)C(c3ccc(Cl)cc3)c3cncnc3)CC2)cc1 (stereo unspecified) | 7.20 and < 7.00

Same assay, conditions: Trypanosoma cruzi, Tulahuen C4 (LacZ)

SMILES | pIC50
CC(C)CN1CCN(C(=O)C(c2ccc(Cl)cc2)c2cccnc2)CC1 (stereo unspecified) | 7.19
O=C(C(c1ccc(Cl)cc1)c1cccnc1)N1CCN(Cc2cccc(C(F)(F)F)c2)CC1 (stereo unspecified) | 7.83
O=C(C(c1ccc(Cl)cc1)c1cccnc1)N1CCN(c2nccs2)CC1 (stereo unspecified) | 7.29
CC(C)(C)OC(=O)N1CCN(C(=O)C(c2ccc(C#N)cc2)c2cccnc2)CC1 (stereo unspecified) | 7.18
O=C(c1ccc(Cl)cc1)N1CCN(C(=O)C(c2ccc(Cl)cc2)c2cccnc2)CC1 (stereo unspecified) | 7.66
O=S(=O)(Cc1ccccc1)Nc1cnccc1N1CCN(c2ccc(C(F)(F)F)cc2)CC1 | 7.74
O=C(c1ccccc1)N1CCN(C(=O)C(c2ccc(Cl)cc2)c2cccnc2)CC1 (stereo unspecified) | 7.31
O=C(C(c1ccc(Cl)cc1)c1cccnc1)N1CCN(Cc2ccccc2C(F)(F)F)CC1 (stereo unspecified) | < 7.00
COCCN1CCN(C(=O)C(c2ccc(Cl)cc2)c2cccnc2)CC1 (stereo unspecified) | < 7.00
O=C(C(c1ccc(Cl)cc1)c1cncnc1)N1CCN(c2ccc(C(F)(F)F)nc2)CC1 (stereo unspecified) | 6.60
CS(=O)(=O)c1ccc(N2CCN(C(=O)C(c3ccc(Cl)cc3)c3cncnc3)CC2)cc1 (stereo unspecified) | 7.11

Test system: not listed separately
Assay: DNDI: Solubility in 0.01M HCl at pH 2 determined by nephelometry
Format: physicochemical
Details: 0.01 M HCl

SMILES | solubility kinetic [µg/mL]
O=C(C(c1ccc(Cl)cc1)c1cncnc1)N1CCN(c2ccc(C(F)(F)F)nc2)CC1 (stereo unspecified) | 12.5 (≈ 27.1 µM)
CS(=O)(=O)c1ccc(N2CCN(C(=O)C(c3ccc(Cl)cc3)c3cncnc3)CC2)cc1 (stereo unspecified) | 25 (≈ 53.1 µM)

Test system: Trypanosoma brucei rhodesiense
Assay: DNDI: HAT in vitro
Format: functional, organism-based
Details: ATCC 30027

SMILES | pIC50
CC(C)CN1CCN(C(=O)C(c2ccc(Cl)cc2)c2cccnc2)CC1 (stereo unspecified) | < 5.00
O=C(C(c1ccc(Cl)cc1)c1cccnc1)N1CCN(Cc2cccc(C(F)(F)F)c2)CC1 (stereo unspecified) | < 5.00
O=C(C(c1ccc(Cl)cc1)c1cccnc1)N1CCN(c2nccs2)CC1 (stereo unspecified) | < 5.00
CC(C)(C)OC(=O)N1CCN(C(=O)C(c2ccc(C#N)cc2)c2cccnc2)CC1 (stereo unspecified) | < 5.00
O=C(c1ccc(Cl)cc1)N1CCN(C(=O)C(c2ccc(Cl)cc2)c2cccnc2)CC1 (stereo unspecified) | < 5.00
O=S(=O)(Cc1ccccc1)Nc1cnccc1N1CCN(c2ccc(C(F)(F)F)cc2)CC1 | < 5.00
O=C(c1ccccc1)N1CCN(C(=O)C(c2ccc(Cl)cc2)c2cccnc2)CC1 (stereo unspecified) | < 5.00
O=C(C(c1ccc(Cl)cc1)c1cccnc1)N1CCN(Cc2ccccc2C(F)(F)F)CC1 (stereo unspecified) | < 5.00
COCCN1CCN(C(=O)C(c2ccc(Cl)cc2)c2cccnc2)CC1 (stereo unspecified) | < 5.00
O=C(C(c1ccc(Cl)cc1)c1cncnc1)N1CCN(c2ccc(C(F)(F)F)nc2)CC1 (stereo unspecified) | < 5.00
CS(=O)(=O)c1ccc(N2CCN(C(=O)C(c3ccc(Cl)cc3)c3cncnc3)CC2)cc1 (stereo unspecified) | < 5.00
